Laboratory results taken from patent publication US11453660B2, “Androgen receptor and glucocorticoid receptor modulators” (ONCOSTELLAE, S.L., priority 2017, dated 2022).
Where a chain is given by its changes, count along the chain named.

Legend:
Rat Androgen Receptor = biological target: T1, Rat Androgen Receptor (Rattus norvegicus, UniProt P15207); assay: Rat Androgen Receptor Binding (polarscreen AR competitor assay, fluorescence polarization); conditions: displacement of Fluormone AL Green, 4 hours at RT, read-out: AR rat-fluorimetric
T1 construct: purchased Life Technologies A15880
T1 sequence (P15207 646-902 limits assumed): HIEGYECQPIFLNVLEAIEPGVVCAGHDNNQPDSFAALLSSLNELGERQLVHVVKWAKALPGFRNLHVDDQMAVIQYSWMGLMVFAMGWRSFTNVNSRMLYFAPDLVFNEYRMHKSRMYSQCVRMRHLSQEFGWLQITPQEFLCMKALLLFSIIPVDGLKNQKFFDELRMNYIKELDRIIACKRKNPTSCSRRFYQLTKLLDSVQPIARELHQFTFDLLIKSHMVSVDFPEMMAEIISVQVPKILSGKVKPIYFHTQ
Procedure, shortened: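 Fluorescence-polarization competition of Fluormone AL Green binding to rat androgen receptor; compounds screened in duplicate at 1 and 10 μM, 4 h at RT, read at λexc 485/λem 535 nm. IC50 from 1:10 dilution series, 10 μM to 0.1 nM, in 1× buffer.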

human androgen receptor = biological target: T2, human androgen receptor (Homo sapiens, UniProt P10275, T878A); assay: Human Androgen Receptor Binding (radioligand binding, LnCap prostate cancer cell line); conditions: LnCap cells, displacement of [^3H]-methyltrienolone, 2 hours at 37° C.; read-out: AR LNCaP
T2 construct: endogenously expressed human androgen receptor using the LnCap prostate cancer cell line; endogenous in cells; host or cells: LNCaP prostate cancer cell line (whole cells)
T2 sequence (P10275 1-920 T878A): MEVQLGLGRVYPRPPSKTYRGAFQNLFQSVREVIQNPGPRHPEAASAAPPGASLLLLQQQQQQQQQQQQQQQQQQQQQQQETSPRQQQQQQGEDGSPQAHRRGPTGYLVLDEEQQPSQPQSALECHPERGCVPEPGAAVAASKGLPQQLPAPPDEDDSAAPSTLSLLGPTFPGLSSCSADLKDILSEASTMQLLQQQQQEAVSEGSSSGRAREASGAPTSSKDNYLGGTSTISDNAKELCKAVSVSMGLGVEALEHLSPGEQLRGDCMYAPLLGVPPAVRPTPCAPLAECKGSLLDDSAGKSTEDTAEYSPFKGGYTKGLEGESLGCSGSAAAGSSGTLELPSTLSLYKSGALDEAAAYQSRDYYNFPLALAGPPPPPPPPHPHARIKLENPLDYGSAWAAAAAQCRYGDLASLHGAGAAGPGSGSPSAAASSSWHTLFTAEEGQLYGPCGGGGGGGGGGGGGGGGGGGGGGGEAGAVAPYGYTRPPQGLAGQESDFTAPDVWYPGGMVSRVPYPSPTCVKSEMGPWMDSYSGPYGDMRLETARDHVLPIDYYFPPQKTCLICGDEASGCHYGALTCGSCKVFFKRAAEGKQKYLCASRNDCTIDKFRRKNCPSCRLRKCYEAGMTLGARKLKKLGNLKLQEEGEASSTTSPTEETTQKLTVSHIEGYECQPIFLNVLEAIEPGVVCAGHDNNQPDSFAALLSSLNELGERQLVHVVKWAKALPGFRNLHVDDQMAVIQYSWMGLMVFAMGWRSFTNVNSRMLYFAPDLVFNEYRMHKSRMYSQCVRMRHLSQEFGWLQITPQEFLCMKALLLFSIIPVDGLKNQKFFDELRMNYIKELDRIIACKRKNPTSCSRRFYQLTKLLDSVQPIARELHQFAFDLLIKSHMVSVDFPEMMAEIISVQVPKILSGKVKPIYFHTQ
Procedure, shortened: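 Whole-cell displacement of [3H]-methyltrienolone from endogenous AR (T878A) in LnCap cells, in RPMI with 0.1% BSA and triamcinolone acetonide. Compounds 10 μM to 0.1 nM in 1:10 steps, 2 h at 37 °C; cells washed, SDS-lysed, bound radioactivity by scintillation counting for IC50.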

AR-Receptor = biological target: T3, AR-Receptor (Homo sapiens, UniProt P10275); assay: Functional Assay AR-Receptor (MDA-MB-453 cells, luciferase); assay type: cell-based; conditions: antagonist effect in the presence of DHT 1 nM, 24 h, luciferase luminescence, read-out: AR antag KB
T3 sequence (P10275 1-920 Q868H): T2 sequence (P10275 1-920 T878A) with Q868H, A878T
Description: Functional Assay AR-Receptor
MDA-MB-453 cells were cultured in DMEM (ATCC, ref 30-2002), 10% FBS, 1% penicillin, 1% streptomycin, 75 μg/ml gentamycin.
The day before performing assay, the cells were trypsinized and seeded in a 384-well plate (Greiner, ref 781098) (8000 cells/well) in 50 μl of complete culture medium. Cells were stores at 37° C. in a 5% CO2 atmosphere overnight.
The medium was replaced by 50 μl complete growth medium with 0.1% FBS. Compounds were dispensed with Echo 550 (Labcyte) and incubated for 24 h at 37° C. in a 5% CO2 atmosphere. Antagonist effect was measured in the presence of DHT 1 nM.
After incubation, assay medium removed and 20 μl of 1× Promega lysis buffer were added to each well. The plate was incubated 15 minutes at RT and quick-frozen to −80° C. and the thaw to room temperature. 50 μl of luciferase substrate (E4550, Promega) were added to each well and luminescence (integration time 1000 msec) was read in an EnSpire multilabel reader (Perkin Elmer).

[1] = biological target: T4, Human Glucocorticoid Receptor (Homo sapiens, UniProt P04150); assay: Competition Binding in IM-9 Human Glucocorticoid Receptor (GR IM-9); conditions: cytosol from IM-9 cell line, 1.5 nM [3H]-Dexamethasone, 4° C. for 6 hours
T4 construct: endogenous in cells; host or cells: cytosol from IM-9 cell line
T4 sequence (P04150 1-777): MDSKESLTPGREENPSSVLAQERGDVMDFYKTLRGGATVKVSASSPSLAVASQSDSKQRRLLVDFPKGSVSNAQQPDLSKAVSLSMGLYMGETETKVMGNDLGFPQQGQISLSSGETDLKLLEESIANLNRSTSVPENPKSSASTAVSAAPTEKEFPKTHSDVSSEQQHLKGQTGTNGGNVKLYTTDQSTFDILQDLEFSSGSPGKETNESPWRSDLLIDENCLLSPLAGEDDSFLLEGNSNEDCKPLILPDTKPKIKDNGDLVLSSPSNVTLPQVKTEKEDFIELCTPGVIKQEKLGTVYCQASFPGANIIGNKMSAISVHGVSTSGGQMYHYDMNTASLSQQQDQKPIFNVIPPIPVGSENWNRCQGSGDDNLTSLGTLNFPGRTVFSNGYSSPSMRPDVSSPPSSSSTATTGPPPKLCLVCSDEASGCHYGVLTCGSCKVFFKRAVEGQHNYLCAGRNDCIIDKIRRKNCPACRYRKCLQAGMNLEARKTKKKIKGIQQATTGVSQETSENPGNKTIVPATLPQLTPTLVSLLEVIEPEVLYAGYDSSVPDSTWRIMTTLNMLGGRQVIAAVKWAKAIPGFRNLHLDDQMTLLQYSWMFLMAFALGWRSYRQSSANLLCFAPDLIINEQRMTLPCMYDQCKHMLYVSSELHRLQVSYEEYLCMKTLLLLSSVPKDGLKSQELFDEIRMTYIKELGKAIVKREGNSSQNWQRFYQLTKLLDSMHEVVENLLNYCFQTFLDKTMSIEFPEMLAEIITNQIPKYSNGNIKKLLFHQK
Procedure, shortened: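 Radioligand competition using 100 μg IM-9 cell cytosol and 1.5 nM [3H]-dexamethasone, incubated 6 h at 4° C in TES/molybdate buffer, pH 7.4. Filtration on PEI-treated GF/B filters, scintillation counting; nonspecific binding defined with 10 μM triamcinolone.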

IC50 (Rat Androgen Receptor) [µM]	IC50 (human androgen receptor) [µM]	Kb (AR-Receptor) [µM]	IC50 [1] [µM]	SMILES
–	≥ 1	0.1 to 1	–	CC(=O)C1=C(C)NC(C2CC2)=C(C(=O)OCc2ccncc2)C1c1csc2ccccc12 (centres unmarked) [Example J32, Pyridin-4-ylmethyl 5-acetyl-4-(benzo[b]thiophen-3-yl)-2-cyclopropyl-6-methyl-1,4-dihydropyridine-3-carboxylate]
–	0.1 to 1	0.1 to 1	–	CC(=O)C1=C(C)NC(C)=C(C(=O)OCc2ccncc2)C1c1csc2c(Br)cccc12 (centres unmarked) [Example J33, Pyridin-4-ylmethyl 5-acetyl-4-(7-bromobenzo[b]thiophen-3-yl)-2,6-dimethyl-1,4-dihydropyridine-3-carboxylate]
–	–	0.1 to 1	< 0.1	CC(=O)C1=C(C)NC(C2CC2)=C(C(=O)OCc2ccc(C#N)cc2)C1c1csc2ncccc12 (centres unmarked) [Example J43, 4-cyanobenzyl 5-acetyl-2-cyclopropyl-6-methyl-4-(thieno[2,3-b]pyridin-3-yl)-1,4-dihydropyridine-3-carboxylate]
–	–	≥ 1	< 0.1	CC(=O)C1=C(C)NC(C)=C(C(=O)OCc2ccccc2-c2ccncc2)C1c1csc2ncccc12 (centres unmarked) [Example L5, 2-(pyridin-4-yl)benzyl 5-acetyl-2,6-dimethyl-4-(thieno[2,3-b]pyridin-3-yl)-1,4-dihydropyridine-3-carboxylate]
–	–	≥ 1	0.1 to 1	CC(=O)C1=C(C)NC(C)=C(C(=O)OCc2cncc(-c3ccncc3)c2)C1c1csc2ncccc12 (centres unmarked) [Example L7, [3,4′-bipyridin]-5-ylmethyl 5-acetyl-2,6-dimethyl-4-(thieno[2,3-b]pyridin-3-yl)-1,4-dihydropyridine-3-carboxylate]

Continued, compound first:

SMILES	IC50 (Rat Androgen Receptor) [µM]	IC50 (human androgen receptor) [µM]	Kb (AR-Receptor) [µM]	IC50 [1] [µM]
CC(=O)C1=C(C)NC(C)=C(C(=O)OCc2ccncc2)C1c1csc2ccccc12 (centres unmarked) [Example B12, Pyridin-4-ylmethyl 5-acetyl-4-(benzo[b]thiophen-3-yl)-2,6-dimethyl-1,4-dihydropyridine-3-carboxylate]	≥ 1	≥ 1	< 0.1	–
CC(=O)C1=C(C)NC(C)=C(C(=O)OCC2CCCCC2)C1c1csc2ccccc12 (centres unmarked) [Example B21, Cyclohexylmethyl 5-acetyl-4-(benzo[b]thiophen-3-yl)-2,6-dimethyl-1,4-dihydropyridine-3-carboxylate]	0.1 to 1	≥ 1	0.1 to 1	–
CC(=O)C1=C(C)NC(C)=C(C(=O)OCCc2ccccc2)C1c1csc2ccccc12 (centres unmarked) [Example C10, Phenethyl 5-acetyl-4-(benzo[b]thiophen-3-yl)-2,6-dimethyl-1,4-dihydropyridine-3-carboxylate]	≥ 1	–	0.1 to 1	–
CC(=O)C1=C(C)NC(C)=C(C(=O)Cc2ccccc2)C1c1csc2ccccc12 (centres unmarked) [Example C52, 1-(5-acetyl-4-(benzo[b]thiophen-3-yl)-2,6-dimethyl-1,4-dihydropyridin-3-yl)-2-phenylethan-1-one]	0.1 to 1	–	0.1 to 1	–
